Reference: ChEMBL document CHEMBL1201862, “PubChem BioAssay data set” (2004)
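Grown in 96-well plates, cells were treated for 48 hours with each compound at five concentrations. Insufficient inhibition: endpoint recorded as highest concentration tested. Here, GI50 denotes the concentration required for 50% inhibition of growth.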 Activity calls are given as the source filed them. Rule as the data show it: active = GI50 up to about 1.1 µM and inactive = higher.

What was measured:
Test in all cases: inhibition of tumour cell growth, NCI panel, 48 h
SF-268 = test system: SF-268
A549 = test system: A549
SR = test system: SR
HT-29 = test system: HT-29
NCI-H460 = test system: NCI-H460
786-0 = test system: 786-0
SNB-78 = test system: SNB-78
SK-MEL-28 = test system: SK-MEL-28
UO-31 = test system: UO-31
COLO 205 = test system: COLO 205
SF-295 = test system: SF-295
HL-60 = test system: HL-60
SK-OV-3 = test system: SK-OV-3
UACC-257 = test system: UACC-257
SK-MEL-5 = test system: SK-MEL-5
TK-10 = test system: TK-10
A498 = test system: A498

Measured: GI50

COc1cc(C(C#N)NNc2nc(C)cc(O)n2)cc(OC)c1OC (centres undefined)
inactive: SF-268 > 100 µM | A549 > 100 µM | SR 37.5 µM | HT-29 > 100 µM | NCI-H460 > 100 µM | 786-0 > 100 µM | SNB-78 > 100 µM | SK-MEL-28 > 100 µM | UO-31 75 µM | COLO 205 > 100 µM | SF-295 > 100 µM | HL-60 > 100 µM | SK-OV-3 > 100 µM | UACC-257 > 100 µM | SK-MEL-5 > 100 µM | TK-10 > 100 µM

CNC(=O)CN(CC(N)=O)C(=O)NC
inactive: SF-268 > 100 µM | A549 > 100 µM | SR > 100 µM | A498 > 100 µM | HT-29 > 100 µM | NCI-H460 > 100 µM | 786-0 > 100 µM | SNB-78 > 100 µM | SK-MEL-28 > 100 µM | UO-31 > 100 µM | COLO 205 > 100 µM | SF-295 > 100 µM | HL-60 > 100 µM | SK-OV-3 > 100 µM | SK-MEL-5 > 100 µM | TK-10 > 100 µM

C=C1C(C(=O)O)C1C(=O)O (centres undefined)
inactive: SF-268 > 100 µM | A549 > 100 µM | SR > 100 µM | A498 > 100 µM | HT-29 > 100 µM | NCI-H460 > 100 µM | 786-0 > 100 µM | SNB-78 > 100 µM | SK-MEL-28 > 100 µM | UO-31 > 100 µM | SF-295 > 100 µM | HL-60 > 100 µM | SK-OV-3 > 100 µM | UACC-257 > 100 µM | SK-MEL-5 > 100 µM | TK-10 > 100 µM

O=C(CN(c1ccccc1)c1ccccc1)n1nnc2ccccc21
inactive: SF-268 28.4 µM | A549 28.6 µM | SR 24.8 µM | HT-29 44.1 µM | NCI-H460 70.8 µM | 786-0 39.2 µM | SNB-78 47.4 µM | SK-MEL-28 37.2 µM | UO-31 14.3 µM | COLO 205 36.9 µM | SF-295 74.8 µM | HL-60 29.5 µM | SK-OV-3 > 100 µM | UACC-257 41.4 µM | SK-MEL-5 20.7 µM | TK-10 > 100 µM

COCCNC(=O)C1C(=O)C(=O)N(CCOC)C1=O (centres undefined)
inactive: SF-268 > 100 µM | A549 > 100 µM | SR > 100 µM | A498 > 100 µM | HT-29 > 100 µM | 786-0 > 100 µM | SNB-78 > 100 µM | SK-MEL-28 > 100 µM | UO-31 > 100 µM | COLO 205 > 100 µM | SF-295 > 100 µM | SK-OV-3 > 100 µM | UACC-257 > 100 µM | SK-MEL-5 > 100 µM | TK-10 > 100 µM

CC(C)CC(NC(=O)OC(C)(C)C)C(=O)Nc1ccc(Nc2nc(F)nc(-c3c4ccccc4c4n3CCS4)n2)cc1 (centres undefined)
inactive: SF-268 31.4 µM | A549 48.4 µM | SR 14.1 µM | A498 26.2 µM | HT-29 19.2 µM | NCI-H460 14.8 µM | 786-0 19.8 µM | SNB-78 21.2 µM | SK-MEL-28 23.5 µM | UO-31 19.7 µM | COLO 205 18.9 µM | SF-295 20.9 µM | HL-60 21.9 µM | SK-OV-3 18.8 µM | UACC-257 23.6 µM | SK-MEL-5 23.7 µM | TK-10 28.8 µM

O=C(O)CCSC(=O)Nc1cccc([N+](=O)[O-])c1
inactive: SF-268 17 µM | A549 > 100 µM | SR > 100 µM | A498 > 100 µM | HT-29 87.1 µM | NCI-H460 > 100 µM | 786-0 > 100 µM | SNB-78 > 100 µM | SK-MEL-28 > 100 µM | UO-31 63 µM | COLO 205 > 100 µM | SF-295 > 100 µM | HL-60 > 100 µM | UACC-257 > 100 µM | TK-10 > 100 µM

CCOc1ccc([Se][Se]c2ccc(OCC)cc2)cc1
inactive: SF-268 70.1 µM | A549 > 100 µM | SR > 100 µM | NCI-H460 > 100 µM | 786-0 > 100 µM | SNB-78 32.7 µM | SK-MEL-28 > 100 µM | UO-31 27.5 µM | COLO 205 > 100 µM | SF-295 > 100 µM | TK-10 > 100 µM

COC(=O)C(CCCCCCCC(C(=O)OC)C1=Nc2nnc(N)n2C1=O)C1=Nc2nnc(N)n2C1=O (centres undefined)
inactive: SF-268 > 100 µM | A549 > 100 µM | SR > 100 µM | A498 > 100 µM | HT-29 > 100 µM | NCI-H460 > 100 µM | 786-0 > 100 µM | SNB-78 > 100 µM | SK-MEL-28 > 100 µM | UO-31 > 100 µM | COLO 205 > 100 µM | SF-295 61.9 µM | HL-60 > 100 µM | SK-OV-3 > 100 µM | UACC-257 > 100 µM | SK-MEL-5 > 100 µM | TK-10 > 100 µM

CCOC(=O)C1Sc2ccccc2N=C1C (centres undefined)
inactive: SF-268 > 100 µM | A549 > 100 µM | SR > 100 µM | A498 > 100 µM | HT-29 > 100 µM | NCI-H460 > 100 µM | 786-0 > 100 µM | SNB-78 > 100 µM | SK-MEL-28 > 100 µM | UO-31 > 100 µM | COLO 205 > 100 µM | SF-295 > 100 µM | HL-60 > 100 µM | UACC-257 > 100 µM | TK-10 > 100 µM

O=C(Nc1ccc(Cl)cc1)c1cccc([N+](=O)[O-])c1O
inactive: SF-268 4.67 µM | A549 3.65 µM | SR 4.76 µM | A498 1.95 µM | HT-29 4.25 µM | NCI-H460 2.1 µM | 786-0 3.88 µM | SNB-78 4.27 µM | SK-MEL-28 4.99 µM | UO-31 1.98 µM | COLO 205 2.91 µM | SF-295 3.29 µM | HL-60 2.07 µM | SK-OV-3 2.96 µM | UACC-257 2.24 µM | SK-MEL-5 1.75 µM | TK-10 3.72 µM

COc1cc2c(Cc3cc(OCc4ccccc4)ccc3N)nccc2c(OC)c1OC
inactive: SF-268 > 10 µM | A549 > 10 µM | SR > 10 µM | HT-29 > 10 µM | NCI-H460 > 10 µM | 786-0 > 10 µM | SNB-78 > 10 µM | SK-MEL-28 > 10 µM | UO-31 > 10 µM | COLO 205 > 10 µM | SF-295 > 10 µM | HL-60 > 10 µM | SK-OV-3 > 10 µM | UACC-257 > 10 µM | SK-MEL-5 > 10 µM | TK-10 > 10 µM

COc1ccc(C(=O)O/N=C2/CCCCC2CN(C)C)cc1 (centres undefined)
inactive: SF-268 > 10 µM | A549 > 100 µM | SR > 100 µM | A498 > 100 µM | HT-29 > 100 µM | NCI-H460 > 100 µM | 786-0 > 100 µM | SNB-78 > 100 µM | SK-MEL-28 > 100 µM | UO-31 > 100 µM | COLO 205 > 100 µM | SF-295 > 100 µM | HL-60 > 100 µM | SK-OV-3 > 100 µM | UACC-257 > 100 µM | SK-MEL-5 > 100 µM | TK-10 > 100 µM

COc1cc2c(cc1O)[C@H](C)C(c1ccccc1OC)O2 (some centres undefined)
inactive: SF-268 5.75 µM | A549 5.33 µM | A498 4.49 µM | HT-29 6.7 µM | NCI-H460 2.08 µM | 786-0 5.61 µM | SNB-78 5.78 µM | SK-MEL-28 6.41 µM | UO-31 8.57 µM | COLO 205 6.97 µM | SF-295 3.2 µM | HL-60 2.6 µM | SK-OV-3 3.01 µM | UACC-257 18.2 µM | SK-MEL-5 3.16 µM | TK-10 20.3 µM

CC(C)C1NC(=O)[C@H](C)OC(=O)[C@@H](C(C)C)NC(=O)[C@@H](C)OC(=O)C(C(C)C)NC(=O)[C@H](C)OC1=O (some centres undefined)
inactive: SF-268 > 100 µM | A549 > 100 µM | SR 29.8 µM | A498 > 100 µM | HT-29 > 100 µM | NCI-H460 > 79.4 µM | 786-0 20.9 µM | SNB-78 > 100 µM | SK-MEL-28 > 100 µM | UO-31 > 100 µM | COLO 205 > 54.6 µM | SF-295 > 100 µM | HL-60 > 100 µM | SK-OV-3 > 100 µM | UACC-257 > 100 µM | SK-MEL-5 > 100 µM | TK-10 > 100 µM

CCCN(CCC)C(=O)Cc1c2n(c3ccccc13)CCCc1ccccc1-2
inactive: SF-268 15.1 µM | A549 13.8 µM | SR 5.21 µM | HT-29 13.2 µM | NCI-H460 15.6 µM | 786-0 16.9 µM | SNB-78 12.3 µM | SK-MEL-28 16.3 µM | UO-31 14.1 µM | COLO 205 15.5 µM | SF-295 10.6 µM | HL-60 15.4 µM | SK-OV-3 15.2 µM | UACC-257 13.9 µM | SK-MEL-5 14.3 µM | TK-10 15.7 µM

O=c1c(O)c(-c2ccc(O)c(O)c2)oc2cc(O)cc(O)c12 [QUERCETIN]
inactive: SF-268 46.7 µM | A549 > 100 µM | SR 35.5 µM | A498 > 100 µM | NCI-H460 36.6 µM | 786-0 59.8 µM | SNB-78 > 100 µM | SK-MEL-28 94.6 µM | UO-31 77.1 µM | COLO 205 33.6 µM | SF-295 50.7 µM | HL-60 21 µM | SK-OV-3 52.7 µM | UACC-257 > 100 µM | SK-MEL-5 92 µM | TK-10 > 100 µM
